Laboratory results taken from US20070117840A1, “Receptor antagonist” (priority 2004, published 2007).

Columns and labels:
[1] = biological target: T1, rat-type OT7T022 (Rattus norvegicus, UniProt Q9EP86); test: Binding inhibiting activity using rat-type OT7T022-expressing CHO cell membrane fraction; details: iodine-labeled Y-RFRP-3 100 pM
T1 construct: expressed in transfected cells; host or cells: CHO cells (membrane fraction)
Procedure: Assessment of Binding Inhibiting Activity of Test Compound Using Rat-Type OT7T022-Expressing CHO Cell
(1) Preparation of Rat-Type OT7T022-Expressing CHO Cell Membrane Fraction
A flask in which a rat-type OT7T022-expressing CHO cell had been cultured was washed with 5 mM EDTA/PBS, cells were peeled with 5 mM EDTA/PBS, and cells were recovered by centrifugation, suspended in 25 mL of a buffer for preparing a membrane fraction (50 mM Tris-HCl, pH 7.5, 5 mM EDTA, 0.5 mM PMSF (manufactured by Wako Pure Chemical Industries, Ltd.), […] leupeptin (manufactured by Peptide Laboratory), 0.1 μg/mL pepstatin A (manufactured by Peptide Laboratory), 4 μg/mL E-64 (manufactured by Peptide Laboratory)), and homogenized on an ice using Polytron (12,000 rpm, 15 seconds×3 times). This was centrifuged in a high speed cooling centrifuge at 4° C. and 1,000 g for 10 minutes, and the supernatant was recovered. 25 mL of a buffer for preparing a membrane fraction was added to precipitates, and the supernatant was recovered by the same procedure. […] The pellet was suspended in a small amount of a buffer for preparing a membrane fraction, this was suspended using a Teflon (registered trade mark) homogenizer, a protein amount was measured using a part, and the remaining was dispensed, and stored at −80° C. […]

[2] = biological target: T2, human-type OT7T022 (Homo sapiens, UniProt Q9GZQ6); test: Antagonist activity in cAMP production inhibiting test system using human-type OT7T022-expressing CHO cell; assay type: cell-based; details: intracellular cAMP, agonist human-type RFRP-3-8 20 nM, forskolin 2 μM
T2 construct: expressed in transfected cells; host or cells: CHO cells (membrane fraction)
T2 sequence (Q9GZQ6 whole entry): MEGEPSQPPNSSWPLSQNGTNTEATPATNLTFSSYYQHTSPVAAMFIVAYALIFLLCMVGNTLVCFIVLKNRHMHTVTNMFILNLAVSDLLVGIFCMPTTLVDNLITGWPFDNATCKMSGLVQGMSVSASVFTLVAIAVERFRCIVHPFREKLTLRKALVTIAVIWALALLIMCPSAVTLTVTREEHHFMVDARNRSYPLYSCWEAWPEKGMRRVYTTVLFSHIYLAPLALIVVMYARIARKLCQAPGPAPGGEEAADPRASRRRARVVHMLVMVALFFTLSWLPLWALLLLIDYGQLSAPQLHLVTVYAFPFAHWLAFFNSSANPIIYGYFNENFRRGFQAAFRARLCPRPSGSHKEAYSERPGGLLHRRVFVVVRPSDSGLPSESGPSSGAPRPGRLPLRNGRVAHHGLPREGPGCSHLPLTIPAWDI
Procedure: Test of Antagonist Activity of Compound in cAMP Production Inhibiting Test System Using Human-Type OT7T022-Expressing CHO Cell
Antagonist activity of a test compound was measured in an intracellular cAMP production inhibiting test system of a CHO cell expressing human-type OT7T022. In the cAMP production inhibiting test, as an assay buffer, a Hanks' balanced salt solution (Gibco) to which 20 mM HEPES pH 7.4, 0.1% bovine serum albumin, and 0.2 mM 3-isobutyl-1-methylxanthine (Sigma) had been added, was used. A sample compound was adjusted with an assay buffer so that the final concentration became 10^−5M, 10^−6M, 10^−7M, 10^−8M, or 10^−10M. […] A human-type OT7T022-expressing CHO cell was passaged on a 96-well plate at 4×10^4/well, and cultured at 37° C., 5% CO2 and 95% air for one day. The plate which had been cultured for one day was washed with an assay buffer (150 μl) two times and, after 30 minutes, this was cultured for 30 minutes at 37° C. and 100% air. After washed with an assay buffer (150 μl) two times, 50 μl of a sample compound solution and, then, 50 μl of an agonist+forskolin solution were added, the mixture was stirred well and, after 30 minutes, this was cultured for 30 minutes at 37° C. and 100% air. An intracellular cAMP amount was measured according to a protocol of the present kit using cAMP-Screen™ system (ABI). […]

[3] = biological target: T2, human-type OT7T022; test: Binding inhibiting activity using human-type OT7T022-expressing CHO cell (125I-Y-RFRP-3); details: human-type OT7T022-expressing CHO cell membrane fraction, 125I-labeled Y-RFRP-3 100 pM; read-out: IC50 value (binding inhibiting rate)
Procedure: Assessment of Binding Inhibiting Activity of Test Compound Using Human-Type OT7T022-Expressing CHO Cell
(1) Preparation of Iodine-Labeled Entity of Human-Type RFRP-3 (Y-RFRP-3)
A part thereof was 1/100 diluted, radioactivity was measured with a γ-counter, and the remaining authentic product was distributed, which was stored at −30° C.
(2) Assessment of Binding Inhibiting Activity
For measuring non-specific binding, non-labeled Y-RFRP-3 was further added to […]. Then, a membrane fraction was transferred to a unifilter GF/C (Perkin Elmer) by filtering the reaction solution using a cell harvester (Perkin Elmer), and this was washed with a cooled 50 mM Tris buffer (pH 7.5) five times. The filter was dried, Microsinti (Packard) was added to the filter, and radioactivity was measured with Topcount (Packard).
A binding inhibiting rate (IC50 value) of a test compound is shown in [Table 1].

[4] = Blood glucagon and insulin concentration after intravenous administration of RFRP-1 to rat; assay type: in vivo, Wistar male rat
Text: (§1) In FIG. 2, (-∘-) represents a blood glucagon concentration of a physiological saline administration group, (-▴-) represents a blood glucagon concentration of an RFRP-1 1 nmol/kg administration group, and (-▪-) represents a blood glucagon concentration of an RFRP-1 10 nmol/kg administration group.
as §1, with “3,” for “2,”, “insulin” for “glucagon”, “group. A value indicates mean±[…] (mean±SE) (n=4).” for “group.”
Pancreatic Glucagon Secretion Promoting Activity of RFRP
In order to study mechanism of blood glucose concentration increasing activity of RFRP-1, influence of RFRP-1 on a blood concentration of glucagon and insulin which are known as a hormone imparting a variation to a blood glucose concentration was studied. A mature Wistar male rat (weight 310 to 350 g at operation) was operated for collecting blood under free moving. Overnight after operation, 300 μl of a blood was collected using a tuberculin injection syringe having a dose of 1 ml and a 25 gauge injection needle (both Telmo) before administration of RFRP-1. […]

[5] = Blood glucose concentration after intravenous administration of RFRP-1 to rat; assay type: in vivo, Wistar male rat; details: 10 nmol/kg, 5 minutes and 15 minutes after administration, compared with physiological saline group
Text: In FIG. 1, (-∘-) represents a blood glucose concentration of a physiological saline administration group, (-▴-) represents a blood glucose concentration of an RFRP-1 1 nmol/kg administration group, and (-▪-) represents a blood concentration of an RFRP-1 10 nmol/kg administration group.
Blood Glucose Concentration Increasing Activity of RFRP
As RFRP, human RFRP-1 (37 amino acids) consisting of an amino acid sequence of 56th (Ser) to 92nd (Phe) of an amino acid sequence represented by SEQ ID No.: 3. Hereinafter, this peptide is abbreviated as RFRP-1.
In order to study influence of peripheral administration of RFRP-1 on a blood glucose concentration, operation for collecting blood under free moving was performed. A mature Wistar male rat (weight 310 to 350 g at operation) was anesthetized with 50 mg/kg of pentobarbital by intraperitoneal administration. The rat was fixed on an anatomic pad in a supine position, and a left jugular vein was exposed. […]
Overnight after operation, 300 μl of blood was collected using a tuberculin injection syringe having a dose of 1 ml and a 25 gauge injection needle (both Telmo) before administration of RFRP-1. […] A blood glucose concentration was measured using Fuji Drichem 3500 (FUJIFILM).

T1 sequence (Q9EP86 whole entry): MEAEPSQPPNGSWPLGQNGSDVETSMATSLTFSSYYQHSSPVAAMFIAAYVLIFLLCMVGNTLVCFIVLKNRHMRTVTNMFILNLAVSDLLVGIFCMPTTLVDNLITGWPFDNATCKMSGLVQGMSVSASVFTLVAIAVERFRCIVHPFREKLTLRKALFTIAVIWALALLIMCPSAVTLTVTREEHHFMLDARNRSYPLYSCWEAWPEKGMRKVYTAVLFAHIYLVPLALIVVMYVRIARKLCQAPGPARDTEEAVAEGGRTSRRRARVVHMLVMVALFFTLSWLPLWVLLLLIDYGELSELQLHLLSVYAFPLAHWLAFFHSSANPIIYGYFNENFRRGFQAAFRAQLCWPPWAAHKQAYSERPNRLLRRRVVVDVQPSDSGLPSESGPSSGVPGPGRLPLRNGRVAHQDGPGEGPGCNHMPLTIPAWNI

Question: With CC(C)(C)Cn1c(C(=O)OC(C)(C)C)c(O)c2ccc(F)cc2c1=O [Example 1, tert-Butyl 7-fluoro-4-hydroxy-2-neopentyl-1-oxo-1,2-dihydro-3-isoquinolinecarboxylate] as the compound, how does the IC50 [1] read?
Answer: The IC50 was less than 1000 nM.

Question: What about the IC50 [2] of the same compound?
Answer: Its IC50 is less than 5 µM.

Question: What about the IC50 [3] of the same compound?
Answer: The IC50 was less than 1000 nM.

Question: What does the source list for CC(C)(C)Cn1c(C(=O)OC(C)(C)C)c(O)c2cc(Cl)c(Cl)cc2c1=O [Example 3, tert-Butyl 6,7-dichloro-4-hydroxy-2-neopentyl-1-oxo-1,2-dihydro-3-isoquinolinecarboxylate]?
Answer: IC50 [1]: < 1000 nM; IC50 [2]: < 5 µM; IC50 [3]: < 1000 nM

Question: With CCCCOc1c(C(=O)OC(C)(C)C)n(CC(C)(C)C)c(=O)c2ccc(F)cc12 [Reference Example 12, tert-Butyl 4-butoxy-6-fluoro-2-neopentyl-1-oxo-1,2-dihydro-3-isoquinolinecarboxylate] as the compound, how does the IC50 [3] read?
Answer: The IC50 was less than 1000 nM.

Question: Which blood insulin concentration [4] does the source give for “RFRP-1: human RFRP-1 (37 amino acids) consisting of 56th (Ser) to 92nd (Phe) of the amino acid sequence of SEQ ID No.: 3 (SLNFEELKDWGPKNVIKMSTPAVNKMPHSFANLPLRF; Human)” here?
Answer: Its blood insulin concentration is “not recognized”.

Question: What about the blood glucose concentration [5] of the same compound?
Answer: The blood glucose concentration was “significant (p<0.05, n=4) activity of increasing a blood glucose concentration”.
